Measured values taken from article PMC8752738, “A propolis-derived small molecule ameliorates metabolic syndrome in obese mice by targeting the CREB/CRTC2 transcriptional complex” (Nature Communications, 2022).
Where “and” joins values, the source holds several entries; their conditions need not be identical. Equal entries are not always repeated.

Molecular target: T1, CREB-CRTC2 interaction (Homo sapiens, UniProt P16220)
T1 construct: expressed in transfected cells; host or cells: HEK293T
Assay: CREB–CRTC2 mammalian two-hybrid assay (GAL4-Luc reporter)
Assay type: cell-based
Conditions: for Relative Gal4-LUC activity, single replicates: Figure 1f, CREB-CRTC2 two-hybrid assay, DMSO control about 100

T1 sequence (P16220 whole entry): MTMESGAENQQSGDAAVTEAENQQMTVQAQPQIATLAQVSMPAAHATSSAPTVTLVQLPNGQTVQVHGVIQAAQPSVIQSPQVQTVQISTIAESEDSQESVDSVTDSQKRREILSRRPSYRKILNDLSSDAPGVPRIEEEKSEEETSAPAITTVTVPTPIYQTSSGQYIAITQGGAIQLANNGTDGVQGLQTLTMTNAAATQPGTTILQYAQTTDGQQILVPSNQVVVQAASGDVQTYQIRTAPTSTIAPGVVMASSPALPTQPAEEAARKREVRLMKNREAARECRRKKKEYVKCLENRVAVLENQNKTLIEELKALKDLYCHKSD

SMILES: CC(C)=CCc1cc(/C=C/C(=O)O)ccc1O [P2, drupanin]
- Relative Gal4-LUC activity, single replicates: 61.0304 and 51.9945 and 58.5603
- reporter activity of CREB–CRTC2 two-hybrid assay (HEK293T, isolated compound 25 μM): significantly inhibited

SMILES: O=C1C[C@@H](c2ccccc2)Oc2cc(O)cc(O)c21 [P18, pinocembrin]
- Relative Gal4-LUC activity, single replicates: 63.0454 and 51.143 and 49.1354

SMILES: COc1ccc(-c2oc3cc(O)cc(O)c3c(=O)c2O)cc1 [P13, kaempferide]
- Relative Gal4-LUC activity, single replicates: 126.299 and 72.1957 and 55.4453

SMILES: COc1ccc(-c2oc3cc(O)c(OC)c(O)c3c(=O)c2O)cc1 [P16, betuletol]
- Relative Gal4-LUC activity, single replicates: 48.4823 and 30.8552 and 26.2372

SMILES: O=c1c(O)c(-c2ccc(O)c(O)c2)oc2cc(O)cc(O)c12 [P14, quercetin]
- Relative Gal4-LUC activity, single replicates: 130.988 and 153.776 and 136.769

SMILES: O=C1c2c(O)cc(O)cc2O[C@H](c2ccc(O)cc2)[C@H]1O [P20, aromadendrin]
- Relative Gal4-LUC activity, single replicates: 126.871 and 59.3858 and 61.7309

SMILES: CC(C)=CCc1cc(/C=C/C(=O)O)cc(C/C=C(\C)CO)c1O [P7, capillartemisin A]
- Relative Gal4-LUC activity, single replicates: 126.493 and 128.204 and 133.801

SMILES: COc1ccc(-c2oc3cc(O)c(O)c(O)c3c(=O)c2OC)cc1 [P17, 5,6,7,-trihydroxy-3,4′-dimethoxyflavone]
- Relative Gal4-LUC activity, single replicates: 79.2706 and 131.512 and 110.674

SMILES: COc1c(O)cc2oc(-c3ccc(O)cc3)c(O)c(=O)c2c1O [P15, 6-methoxykaempferol]
- Relative Gal4-LUC activity, single replicates: 91.5539 and 105.994 and 143.876
